Experimental data: patent US20240382490A1, “QUINAZOLINE-THIOHYDANTOIN FUSED HETEROCYCLES WHICH ARE SUITABLE FOR TREATING, AMELIORATING OR PREVENTING A PROLIFERATIVE DISORDER” (FRIEDRICH-ALEXANDER-UNIVERSITÄT ERLANGEN NÜRNBERG, priority 2021, published 2024)
Read-outs that look alike come from different tables or passages of the source.

Columns and labels:
wild-type CCRF CEM cells [1] = settings: sensitive wild-type CCRF CEM cells; previously reported (NPL-9, NPL-10), footnote calls them EC50; cited from earlier work
[2] = tested on: multidrug resistant P glycoprotein-overexpressing CEM/ADR5000 cells; settings: previously reported (NPL-9, NPL-10), footnote calls them EC50; cited from earlier work
human endometrium cells = settings: NPL-12, read-out: Healthy cells IC50 (human endometrium cells); cited from earlier work
wild-type CCRF CEM cells [3] = assay: IC50 in sensitive wild-type CCRF CEM leukemia cells; format: cell-based, human
[4] = tested on: multidrug resistant P glycoprotein-overexpressing CEM/ADR5000 cells; assay: IC50 in multidrug resistant CEM/ADR5000 leukemia cells; format: cell-based, human
healthy human cells = assay: IC50 in healthy cells (selectivity); format: cell-based; settings: for IC50: healthy human cells; for Activity against healthy cells relative to CEM/ADR5000 cells: healthy cells IC50 compared with CEM/ADR5000 IC50
RPMI-8226 cells = assay: CellTiter-Blue cell viability assay, RPMI-8226; format: cell-based; settings: five dose (0.01, 0.1, 1, 10, 100 μM) screening, 48 h treatment
Description: (§1) All leukemia cell lines (RPMI-8226, K562, HL-60, and MOLT-4) were obtained from NCI-DTP, NCI-Frederick, USA. Cells were cultured and maintained in RPMI-1640 (Corning, USA; #10-040-CV) media supplemented with 10% FBS (Corning, USA; #35-015-CV) and 1% penicillin-streptomycin-amphotericin B (GIBCO, USA; #15240-062) at 37° C. with 5% CO2. At 70 to 80% confluence cells were harvested and plated for cell viability assay.
(§2) Each leukemia cell line was plated at 3000 cells/well (in 100 μL complete media) in black-clear bottom 96-well plates (Corning, USA; #3603). After 24 h, cells were treated with respective compounds at one dose (10 μM) or five dose (0.01, 0.1, 1, 10, 100 μM) concentrations. After 48 h treatment, cell viability was recorded using CellTiter-Blue cell viability assay (Promega, USA; #G8081) as per the manufacturer's protocol.

K562 cells = assay: CellTiter-Blue cell viability assay, K562; format: cell-based; settings: for IC50: five dose (0.01, 0.1, 1, 10, 100 μM) screening, 48 h treatment
Description: as §1, §2

HL-60 cells = assay: CellTiter-Blue cell viability assay, HL-60; format: cell-based; settings: for IC50: five dose (0.01, 0.1, 1, 10, 100 μM) screening, 48 h treatment
Description: as §1, §2

MOLT-4 cells = assay: CellTiter-Blue cell viability assay, MOLT-4; format: cell-based; settings: five dose (0.01, 0.1, 1, 10, 100 μM) screening, 48 h treatment
Description: as §1, §2

MRTF-A = MRTF-A nuclear localization in HAP1 cells; format: cell-based; settings: human leukemia cell line HAP1, FIG. 4
Description: (§3) Quinazoline-thiohydantoin fused heterocycles 5g and 5k were to tested to determine whether they can inhibit MRTF-A nuclear localization to overcome resistance. First the localization of MRTF-A in a human leukemia cell line (HAP1) was analyzed. […] It was also tested whether 5g can activate cellular senescence.

[5] = tested on: human leukemia cell line (HAP1); assay: Cellular senescence in HAP1 cells; format: cell-based; settings: mediated by oncogene Ras and downstream MAPK/pRb pathways, FIG. 4
Description: as §3

human fibroblasts = settings: normal tissue cell line (human fibroblasts), NPL-11; read-out: Healthy cells IC50 (overall IC50 in human fibroblasts); cited from earlier work
[6] = one dose (10 μM), 48 h, FIG. 5A

Row | SMILES | IC50 (wild-type CCRF CEM cells [3]) [µM] | IC50 [4] [µM] | IC50 (healthy human cells) [µM] | other results
1 | C[C@@H]1CC[C@H]2[C@@H](C)C(=O)O[C@@H]3O[C@@]4(C)CC[C@@H]1[C@]32OO4 [Artemisinin, artemisinin] |  |  |  | IC50 (wild-type CCRF CEM cells [1]): 36.9 ± 6.9 µM; IC50 [2]: 26.9 ± 4.4 µM; IC50 (human endometrium cells): 69.6 µM
2 | O=C1C2=Nc3ccccc3CN2C(=S)N1c1ccc([N+](=O)[O-])cc1 [Compound 3a] | 27.8 ± 2.6 | 26.8 ± 1.67 | 19.8 ± 4.8 | 
3 | COc1cccc(N2C(=O)C3=Nc4ccccc4CN3C2=S)c1 [Compound 3j] | 28.1 ± 0.831 | 28.1 ± 0.972 | 42.8 ± 6.1 | 
4 | CC(C)c1cccc(C(C)C)c1N1C(=O)C2=Nc3ccccc3CN2C1=S [Compound 3l] | 25.1 ± 6.49 | 19.1 ± 7.1 | 30.5 ± 0.5 | 
5 | CC(c1ccccc1)N1C(=O)C2=Nc3ccc(Br)cc3CN2C1=S (stereo not drawn) [Compound 5a] | 0.483 ± 0.025 | 0.409 ± 0.028 | 2.2 ± 0.2 | 
6 | C[C@H](c1ccccc1)N1C(=O)C2=Nc3cc([N+](=O)[O-])ccc3CN2C1=S [Compound 5d] | 0.14 ± 0.028 | 0.127 ± 0.019 | 2.5 ± 0.8 | Activity against healthy cells relative to CEM/ADR5000 cells (healthy human cells): fifteen to twenty times lower activity
7 | CC(c1ccccc1)N1C(=O)C2=Nc3ccc(Cl)cc3CN2C1=S (stereo not drawn) [Compound 5e] | 0.375 ± 0.043 | 0.295 ± 0.083 | 2.4 ± 0.5 | 
8 | CC(c1ccccc1)N1C(=O)C2=Nc3cc(Cl)ccc3CN2C1=S (stereo not drawn) [Compound 5f] | 0.228 ± 0.022 | 0.156 ± 0.013 | 2.3 ± 0.7 | Activity against healthy cells relative to CEM/ADR5000 cells (healthy human cells): fifteen to twenty times lower activity
9 | CC(c1ccccc1)N1C(=O)C2=Nc3cccc(Cl)c3CN2C1=S (stereo not drawn) [Compound 5g] | 0.125 ± 0.024 | 0.146 ± 0.015 | 2.8 ± 0.6 | Activity against healthy cells relative to CEM/ADR5000 cells (healthy human cells): fifteen to twenty times lower activity; IC50 (RPMI-8226 cells): 15 ± 1.39 µM; IC50 (K562 cells): 7.8 ± 0.63 µM; One dose cell viability screening, K562 (K562 cells; [6]): more active compared to 5k; IC50 (HL-60 cells): 9.9 ± 0.71 µM; One dose cell viability screening, HL-60 (HL-60 cells; [6]): more active compared to 5k; IC50 (MOLT-4 cells): 18.5 ± 2.17 µM; Effect on MRTF-A nuclear localization (MRTF-A): efficiently increased cytoplasmic MRTF-A nuclear localization; Activation of cellular senescence [5]: able to provoke a senescence response
10 | COc1ccc2c(c1)CN1C(=S)N(C(C)c3ccccc3)C(=O)C1=N2 (stereo not drawn) [Compound 5k] | 1.53 ± 0.148 | 1.33 ± 0.247 | 1.9 ± 0.4 | IC50 (RPMI-8226 cells): 14 ± 2.43 µM; IC50 (K562 cells): 24.7 ± 4.01 µM; IC50 (HL-60 cells): 41.1 ± 3.12 µM; IC50 (MOLT-4 cells): 28.7 ± 2.08 µM
11 | COc1cccc2c1C(=O)c1c(O)c3c(c(O)c1C2=O)C[C@@](O)(C(=O)CO)C[C@@H]3O[C@H]1C[C@H](N)[C@H](O)[C@H](C)O1 [Doxorubicin, doxorubicin] |  |  |  | IC50 (wild-type CCRF CEM cells [1]): 0.009 µM; IC50 [2]: 23.3 µM; IC50 (human fibroblasts): 1.8 µM
